Consider one substance from patent US10646489B2, “Compositions and methods for increasing energy metabolism” (NuSirt Sciences, Inc., priority 2012, dated 2020).

Assay [1] deals with 3T3-L1 adipocytes. In words: Glucose utilization (extracellular acidification response to glucose injection) in 3T3-L1 adipocytes / adipocytes. To be noted: 3T3-L1 cells; leucine alone; p<0.05. It counts as cell-based. On the procedure: Glucose utilization was measured as extracellular acidification response to glucose injection. *p=0.05. […] Treatment with 0.5 mM leucine corresponds to a circulating level of the same molarity achieved by administering about 1,125 mg of dietary leucine to a human subject. Treatment with 0.25 mM leucine corresponds to a circulating level of the same molarity achieved by administering about 300 mg of dietary leucine to a human subject.

Assay [2] relates to C2C12 myotubes. In words: Fatty acid oxidation (O2 consumption response to palmitate injection) in C2C12 myotubes / muscle cells. Type of assay: cell-based. To be noted: C2C12 myotubes; sildenafil 1 nM (change from baseline) or leucine 0.5 mM alone. On the procedure:
Fatty acid oxidation was measured as O2 consumption response to palmitate injection and is expressed as % change from pre-injection baseline. […] Data expressed as % change from control value. *p=0.013; **p=0.015. The output of the pathways can be measured using one or more methods, disclosed herein and/or known in the art. […] Mitochondrial biogenesis can be measured using a mitochondrial probe by using fluorescence. AMPK activity can be determined by measuring AMPK phosphorylation via an ELISA assay or by Western blot. Sirt1 activity can be determined by measuring deacetylation of a substrate, which can be detected using a fluorophore. […] Treatment with 0.5 mM leucine corresponds to a circulating level of the same molarity achieved by administering about 1,125 mg of dietary leucine to a human subject. Treatment with 0.25 mM leucine corresponds to a circulating level of the same molarity achieved by administering about 300 mg of dietary leucine to a human subject.

Assay [3] concerns diet-induced obese mouse. Put plainly: Liver mass in the diet-induced obese mouse. It counts as in vivo. To be noted: 6 week treatment. As for the experimental part:
The interactive effects of icariin, a flavanol with specific PDE5 inhibitory properties, on glycemia and insulin sensitivity were assessed in the diet-induced obese mouse, which can be used as a murine model of type 2 diabetes. Male C57/BL6 mice were placed on standard low-fat chow (control; 10% energy from fat) or high fat (60% energy from fat, Research Diets # D12492, Research Diets, Inc, New Brunswick, N.J.) at six weeks of age to induce insulin resistance. […] The animals were then randomized to the following diets for an additional six weeks, with 10 animals per group: Low fat diet (LFD) control; High fat diet (HFD) control; HFD+leucine (24 g/kg diet, a two-fold increase over control levels)1 HFD+leucine (24 g/kg diet)+icariin (25 mg/kg diet). […] A chronic high fat diet is associated with other deleterious consequences. For example, a chronic high fat diet can increase liver mass, likely resulting from fatty accumulation in the liver. Chronic high fat feeding is also associated with chronic inflammation, which can contribute to a number of diseases. To determine the effects of leucine or leucine+icariin administration on additional consequences of high fat feeding, liver mass and C-reactive protein (a biomarker of inflammation) were assessed in all experimental groups at the end of the 6 week study. […] HFD, FIG. 26). […]

Assay [4] relates to 3T3-L1 adipocytes. In words: Fatty acid oxidation in 3T3-L1 adipocytes / adipocytes. It counts as cell-based. To be noted: 3T3-L1 adipocytes; leucine 0.5 mM or HMB 5 μM alone; p<0.05. The text has this:
Data expressed as % change from control value.*p<0.05. The output of the pathways can be measured using one or more methods, disclosed herein and/or known in the art. […] Mitochondrial biogenesis can be measured using a mitochondrial probe by using fluorescence. AMPK activity can be determined by measuring AMPK phosphorylation via an ELISA assay or by Western blot. Sirt1 activity can be determined by measuring deacetylation of a substrate, which can be detected using a fluorophore. […] Treatment with 0.5 mM leucine corresponds to a circulating level of the same molarity achieved by administering about 1,125 mg of dietary leucine to a human subject. Treatment with 0.25 mM leucine corresponds to a circulating level of the same molarity achieved by administering about 300 mg of dietary leucine to a human subject.

The subject of assay [5] is diet-induced obese mouse. Put plainly: Post-prandial glucose, insulin and HOMAIR in the diet-induced obese mouse. Type of assay: in vivo. To be noted: 7 days of treatment, leucine 24 g/kg diet, icariin 25 mg/kg diet. As for the experimental part: The interactive effects of icariin, a flavanol with specific PDE5 inhibitory properties, on glycemia and insulin sensitivity were assessed in the diet-induced obese mouse, which can be used as a murine model of type 2 diabetes. Male C57/BL6 mice were placed on standard low-fat chow (control; 10% energy from fat) or high fat (60% energy from fat, Research Diets # D12492, Research Diets, Inc, New Brunswick, N.J.) at six weeks of age to induce insulin resistance. […], with 10 animals per group: Low fat diet (LFD) control; High fat diet (HFD) control; HFD+leucine (24 g/kg diet, a two-fold increase over control levels)1 HFD+leucine (24 g/kg diet)+icariin (25 mg/kg diet). […] Mice were fasted overnight (˜16 hours) prior to measurement of fasting blood glucose, insulin and glucose tolerance. Glucose tolerance was determined following measurement of fasting glucose via intraperitoneal administration of glucose (1.2 g/kg body weight) followed by blood glucose measurement at 15, 30, 60, 90 and 120 minutes. Post-prandial glucose was measured within one hour of cessation of eating. Insulin tolerance was measured via an insulin tolerance test (ITT). Food was removed 4-6 hours prior to ITT, and baseline blood glucose measured. The mice were then injected intraperitoneally with insulin (1.2 U/kg body weight) and blood glucose was measured 15, 30, 60, 90 and 120 minutes following insulin injection. The homeostasis model assessment of insulin resistance (HOMAIR) was used as a screening index of changes in insulin sensitivity. HOMAIR is calculated via standard formula from fasting plasma insulin and glucose as follows: HOMAIR=[Insulin (uU/mL)×glucose (mM)]/22.5. The plasma glucose and insulin concentrations were measured using the Glucose Assay Kit from Biovision (Milpitas, Calif.) and the Insulin kit from Millipore (Billerica, Mass.), respectively. CRP levels in plasma were determined by ELISA (CRP: Life Diagnostics, West Chester, Pa.).

The test system of assay [6] is C2C12 myotubes. Put plainly: Glucose utilization (extracellular acidification response to glucose injection) in C2C12 myotubes / muscle cells. It counts as cell-based. The note with it: C2C12 myotubes; leucine alone. As for the experimental part: Glucose utilization was measured as extracellular acidification response to glucose injection. *p=0.04. […] Treatment with 0.5 mM leucine corresponds to a circulating level of the same molarity achieved by administering about 1,125 mg of dietary leucine to a human subject. Treatment with 0.25 mM leucine corresponds to a circulating level of the same molarity achieved by administering about 300 mg of dietary leucine to a human subject.

As to leucine, the “glucose utilization, agent alone” value in the assay with 3T3-L1 adipocytes [1] is 48.6%; in the assay on C2C12 myotubes [6], 9.3%. The results for the “fatty acid oxidation, agent alone” value with C2C12 myotubes [2] and with 3T3-L1 adipocytes [4] were 73% and 27%, respectively. Further, the “reduction in liver mass vs. untreated HFD mice” value in the assay with diet-induced obese mouse [3] is about 10%. Further, the “reduction in post-prandial glucose vs. untreated HFD mice” value in the assay on diet-induced obese mouse [5] is “no independent effect”.
